The source of these data is patent US10816541B2, “Method for predicting side effect of whitening ingredient” (AMOREPACIFIC CORPORATION, priority 2015, dated 2020).

Structures are written as SMILES. “Also recorded” adds a separate entry of the source. Like-named read-outs stand apart in the source and are kept apart here.

The subject of data set [1] is A375 cells. Nature of the data set: Cytotoxic concentration for A375 cells depending on treatment time (CCK-8, Test Example 1-2). The data set is classed as cell-based, human. Conditions: for Change in cytotoxicity after removal of the samples: A375 cells treated for a day, then cultured further for 2 days after removing the samples; for CC20 / CC50: A375 cells. Here is the method: (§1) The A375 (human melanoma cell line) cells were purchased from the ATCC (Cat. No. CRL-1619, USA). As a cell culture medium, DMEM (Cat. No. 12-604, Lonza, USA) supplemented with 10% FBS (Cat. No. 16000-044, Gibco, USA) was used. Subculturing and cytotoxicity test were conducted in the same manner as for the HEM cells.
(§2) Cytotoxicity was measured with Cell Counting Kit-8 (CCK-8) manufactured by Dojindo Molecular Technologies (USA). After removing the medium from the 96-well plate, 200 μL of 10% CCK-8 in the same medium was added to each well. After incubation at 37° C. for about 2 hours, absorbance of 100 μL of the medium was measured at 450 nm using an ELISA reader. As the cells […], the color of CCK-8 shifts to longer wavelength from colorless to orange color.
(§3) Cell survivability was calculated according to Equation 1. Cell survivability (%)={(Asample−Ab)/(Ac−Ab)}×100 [Equation 1]
(§4) The cytotoxicity of the whitening ingredients for A375 (human melanoma cell line, Cat. No. CRL-1619) cells with different treatment time was investigated. The toxicity was measured for 3 different sample treatment conditions. The cytotoxicity was measured after treating with the whitening ingredients for 24 hours, after treating with the samples for 24 hours and 48 hours later after exchanging with fresh media, and after treating with the samples for 72 hours without exchange of media. The result is shown as graphs (FIG. 3). Based on the measurement result, CC20 and CC50 were calculated for the whitening ingredients and treatment time. Then, the ratio of the cytotoxic concentration on day 3 as compared to day 1 was calculated (Table 3).

Experiment in data set [2]: as above
Format: cell-based, human. Conditions: human, A375 cells (melanoma cell line), A375 cells; for CC50 at 24 hours: Day 1 (24 hours); for CC50 at 3 days: Day 3. Here is the method:
as §1, §2, §3, §4

Data set [3] relates to HEMn-MP cells. Nature of the data set: Cytotoxic concentration for HEMn-MP cells depending on treatment time (CCK-8, Test Example 1-1). The data set is classed as cell-based, human. Here is the method: (§5) The HEMn-MP (human epidermal melanocytes, neonatal, moderately pigmented donor, Cat. No. C-102-5C) cells were purchased from Life Technologies (USA). As a cell culture medium, medium 254 (Cat. No. M-254-500) supplemented with HMGS (Cat. No. S-002-5) was used. The cells were cultured according to the manufacturer's manual and cells during passages 3-8 were used. To summarize, the cells were cultured on a 175 T flask in a 5% CO2 incubator at 37° C. During subculturing, the cells were separated using 0.05% trypsin-EDTA, collected by centrifugation (1200 rpm, 5 minutes) and cultured after seeding to 5×10^3 cells/cm^2. For cytotoxicity test, the cells were seeded onto a 96-well plate with 2×10^4 cells/well, cultured for a day and treated with each substance at 200 μL/well. Then, cytotoxicity was measured after a predetermined time.
as §2, §3
(§6) In order to determine the cytotoxic concentration of the whitening ingredients for HEMn-MP (human epidermal melanocytes, neonatal, moderately pigmented donor, Cat. No. C-102-5C) cells, cell survivability (% cell survival rate) was measured as compared to a control group (0.5% DMSO) on days 1 and 7 after treatment with each whitening ingredient at the concentration described in Table 1 (FIG. 2). Based on the measurement result, CC20 and CC50 were calculated for the whitening ingredients and treatment time. Then, the ratio of the cytotoxic concentration on day 7 as compared to day 1 was calculated (Table 2).

Experiment in data set [4]: as above
The data set is classed as cell-based, human. The following applies: human, HEMn-MP cells (human epidermal melanocytes); for CC50 at 1 day: Day 1; for CC50 at 7 days: Day 7. Here is the method:
as §5, §2, §3, §6

The test system of data set [5] is HEMn-MP cells. Nature of the data set: Inhibition of melanin production in HEMn-MP cells and correlation factor with cytotoxic concentration (Test Example 2). Format: cell-based, human. Conditions: for CC20/EC50 / CC50/EC50 / EC50: HEMn-MP cells, day 7; for CC20/EC50: 20% cytotoxic concentration divided by EC50 of melanin production; for CC50/EC50: 50% cytotoxic concentration divided by EC50 of melanin production; for EC50: read-out: EC50 (50% inhibitory concentration of melanin synthesis). Here is the method:
The inhibitory effect of melanin production of the whitening ingredients for HEMn-MP cells was investigated. After treating the cells with the samples at concentrations shown in Table 4 and culturing for 7 days, the amount of melanin was measured as compared to a control group (0.5% DMSO) (FIG. 4). Also, EC50 (50% effective inhibitory concentration of melanin production) was calculated for the whitening ingredients (Table 5). Then, CC20 or CC50 was divided by EC50 to investigate the correlation factor (difference) between the cytotoxicity and the effective inhibitory concentration of melanin production (Table 6).
Table 6 compares the correlation factor between the cytotoxic concentration (CC50) and the inhibitory concentration of melanin synthesis (EC50) of the whitening ingredients on day 7. CC20/EC50 is the value obtained by dividing the 20% cytotoxic concentration by the 50% effective inhibitory concentration of melanin production and represents the correlation factor of the 20% cytotoxic concentration and the effective concentration. CC50/EC50 is the value obtained by dividing the 50% cytotoxic concentration by the 50% effective inhibitory concentration of melanin production and represents the correlation factor of the 50% cytotoxic concentration and the effective concentration.

Data set [6] has as its system HEMn-MP cells. Nature of the data set: Cytotoxicity for HEMn-MP cells with or without UVB radiation (Test Example 3). Format: cell-based, human. Conditions: UVB 20 mJ/cm^3 irradiated vs unirradiated HEMn-MP cells, day 7. From the text:
In order to investigate the effect of UVB radiation on the cytotoxicity of the whitening ingredients, cytotoxicity was compared for groups treated with the whitening ingredients without UVB radiation and groups irradiated with UVB at […] and then treated with the whitening ingredients (FIG. 5). That is to say, the response of the cells excited by UVB radiation to various whitening ingredients was investigated. After irradiating the cells with UVB and treating the cells with the samples, increase in cytotoxicity was determined and the ratio of cytotoxicity as compared to before the treatment was calculated (Table 7).
The ratio (%) of toxicity for the UVB-irradiated cells as compared to UVB-unirradiated cells was determined at representative concentrations (3 points) for each whitening ingredient. The ratio was corrected for the cytotoxicity of the control group (15-20%).

The conditions of data set [7]: consumers of commercialized skin whitening products, cited from earlier work.

Consider `CC(=O)CCc1ccc(O)cc1` [RK, raspberry ketone], for which the “Change in cytotoxicity after removal of the samples” value (“Change in cytotoxicity” for short) in data set [1] is “continuously increased toxicity”. Further, the CC20 in data set [1] (Day 1 (24 hours)) stood at 6700 ± 100 µM; in data set [1] (Day 3), 240 ± 20 µM; in data set [3] (Day 1), 6500 ± 200 µM; in data set [3] (Day 7), 400 ± 100 µM. This molecule also registered a CC50 at 24 hours in data set [2] of 10700 ± 100 µM. This molecule registered a CC50 at 3 days in data set [2] of 790 ± 40 µM. Half-maximal cytotoxicity in data set [4] (CC50 at 1 day) was put at 10400 ± 200 µM. In addition, the CC50 at 7 days in data set [4] was found to be 1400 ± 400 µM. The same molecule registered a CC20/EC50 in data set [5] of 0.4 Fold. The molecule also came in with a CC50/EC50 in data set [5] of 1.4 Fold. The EC50 in data set [5] (Homo sapiens, 168 h) amounted to 970 ± 90 µM. In addition, the figures for the Ratio of cytotoxicity in data set [6] (0.625 mM), in data set [6] (1.25 mM) and in data set [6] (2.5 mM) were 19%, 8% and 26%, respectively. The “Clinical side effect reported by users” value in data set [7] is listed as “leukoderma-like side effects”.
For `CCCCc1ccc(O)cc1O` [RC, 4-butylresorcinol], in data set [1], the “Change in cytotoxicity” value is “no more increase in cytotoxicity”. In addition, the CC20 was found to be 313.9 ± 10.6 µM in data set [1] (Day 1 (24 hours)), 52.73 ± 4.67 µM in data set [1] (Day 3), 170.2 ± 15.9 µM in data set [3] (Day 1) and 69.7 ± 6.1 µM in data set [3] (Day 7). Moreover, half-maximal cytotoxicity in data set [2] (CC50 at 24 hours) was put at 508 ± 11.3 µM. This molecule also displayed a CC50 at 3 days in data set [2] of 122 ± 11 µM. In data set [4], it took 347 ± 12.7 µM to reach half-maximal cytotoxicity (CC50 at 1 day). The CC50 at 7 days in data set [4] was found to be 284 ± 20.4 µM. For the same molecule, the CC20/EC50 in data set [5] is listed as over 20 Fold. Also, in data set [5] (Homo sapiens, 168 h), the EC50 turned out to be 2.7 ± 0.6 µM. Also, the Ratio of cytotoxicity in data set [6] (31.25 μM), in data set [6] (62.5 μM) and in data set [6] (125 μM) was 0% in each case. For the same molecule, in data set [7] (listed as rucinol), the “Clinical side effect reported by users” value is listed as “no clinical side effect has been reported; also recorded: no clinical problem has been reported”.
`C[C@@H](O)CCc1ccc(O)cc1` [RD, rhododenol]: the “Change in cytotoxicity” value in data set [1] is on record as “continuously increased toxicity”. The CC20 in data set [1] (Day 1 (24 hours)) was 4200 ± 200 µM; in data set [1] (Day 3) it was 190 ± 10 µM; in data set [3] (Day 1), 7100 ± 800 µM; in data set [3] (Day 7), 1000 ± 0 µM. In addition, the CC50 in data set [1] (Day 1 (24 hours)) came out at 8400 ± 200 µM; in data set [1] (Day 3), 500 ± 20 µM; in data set [3] (Day 1), 10800 ± 700 µM; in data set [3] (Day 7), 2400 ± 100 µM. In data set [5], this molecule registered a CC20/EC50 of 0.8 Fold. In data set [5], this molecule returned a CC50/EC50 of 2.1 Fold. Besides, the EC50 in data set [5] stood at 1130 ± 160 µM. Also, the Ratio of cytotoxicity in data set [6] (1.25 mM) was 24%; in data set [6] (2.5 mM), 27%; in data set [6] (5 mM), 15%. For the same molecule, in data set [7], the “Clinical side effect reported by users” value is reported as “leukoderma-like side effects; also recorded: leukoderma-like symptoms”.
For the molecule `COc1cc(OC)c(C23CC4CC(CC(C4)C2)C3)cc1C(=O)NCc1ccc(O)cc1O` [AP, 5-adamantan-1-yl-N-(2,4-dihydroxybenzyl)-2,4-dimethoxy-benzoic acid amide], the “Change in cytotoxicity” value in data set [1] is given as “no more increase in cytotoxicity”. For the same molecule, the CC20 in data set [1] (Day 1 (24 hours)) came to 25.5 ± 0.8 µM; in data set [1] (Day 3), 17.2 ± 0.09 µM; in data set [3] (Day 1), 3.3 ± 0.4 µM; in data set [3] (Day 7), 1.3 ± 0.0 µM. Also, in data set [2], the midpoint of cytotoxicity, the CC50 at 24 hours, lay at 33.8 ± 0.7 µM. In data set [2], this molecule yielded a CC50 at 3 days of 19.99 ± 0.06 µM. Also, the CC50 at 1 day in data set [4] was determined as 5.4 ± 0.3 µM. This molecule returned a CC50 at 7 days in data set [4] of 2.5 µM. Also, the CC20/EC50 in data set [5] amounted to 11.8 Fold. For the same molecule, the EC50 in data set [5] (Homo sapiens, 168 h) was found to be 0.11 ± 0.01 µM. Moreover, the “Inhibitory effect of melanin production by melanocytes” value in data set [5] (Test Example 2) is reported as “excellent inhibitory effect of melanin production”. The Ratio of cytotoxicity was found to be 2% in data set [6] (0.39 μM), 14% in data set [6] (0.78 μM) and 0% in data set [6] (1.56 μM).
As to `Oc1ccc(OCc2ccccc2)cc1` [MB, 4-benzyloxy-phenol], the “Change in cytotoxicity” value in data set [1] is “continuously increased toxicity”. Also, the CC20 turned out to be 119.8 ± 4.7 µM in data set [1] (Day 1 (24 hours)), 2.31 ± 0.07 µM in data set [1] (Day 3), 178.2 ± 21.6 µM in data set [3] (Day 1) and 8.9 ± 0.4 µM in data set [3] (Day 7). The molecule further displayed a CC50 at 24 hours in data set [2] of 295 ± 7.2 µM. In addition, half-maximal cytotoxicity in data set [2] (CC50 at 3 days) was put at 7.19 ± 0.14 µM. For the same molecule, the CC50 at 1 day in data set [4] came to 284 ± 28.2 µM. Besides, the CC50 at 7 days in data set [4] worked out at 19 ± 0.7 µM. This molecule also registered a CC20/EC50 in data set [5] of 1.3 Fold. This molecule also returned a CC50/EC50 in data set [5] of 2.8 Fold. Also, the EC50 in data set [5] (Homo sapiens, 168 h) turned out to be 6.8 ± 2.5 µM. Also, the “Clinical side effect reported by users” value in data set [7] is “leukoderma-like side effects”.
